For data set [1], the system named is advanced pancreatic cancer. The following applies: cited from earlier work.
Data set [2] has as its system IBS patients. Briefly: open-label study in forty-two IBS patients. Format: in vivo, human. How it is done:
Forty-two IBS patients participated in an open-label study. Participants received 0.5 mg PTI-901/day for 4 weeks and were evaluated during baseline, during treatment, and at 4-week follow-up. Patients recorded degree of abdominal pain, stool urgency, consistency, and frequency. Primary outcomes were number of pain-free days and overall symptom relief, evaluated by a global assessment score. Data were analyzed per protocol. Global assessment improved in 76% of 42 patients. During treatment, the mean weekly number of pain-free days increased from 0.5+/−1 to 1.25+/−2.14 (P=0.011).

The values that follow come from patent US11419865B2, “Method for inducing a sustained immune response” (Cytocom Inc., priority 2016, dated 2022).

For the compound `Nc1ccn([C@@H]2O[C@H](CO)[C@@H](O)C2(F)F)c(=O)n1` [gemcitabine], the “Clinical benefit response, historical controls” value in data set [1] is 23.8%. In the case of `Cl.O=C1CC[C@@]2(O)[C@H]3Cc4ccc(O)c5c4[C@@]2(CCN3CC2CC2)[C@H]1O5` [PTI-901], in data set [2] (0.5 mg/day for 4 weeks), the adverse reactions entry was “no significant adverse reactions”. Moreover, the “patients with improved global assessment” value in data set [2] (0.5 mg/day for 4 weeks, 42 patients) turned out to be 76%. In addition, the “mean weekly number of pain-free days during treatment” value in data set [2] (0.5 mg/day, baseline 0.5+/−1, P=0.011) is 1.25 ± 2.14 days.

With `O=c1[nH]cc(F)c(=O)[nH]1` [5-fluorouracil (5-FU), 5-fluorouracil], the “Clinical benefit response, historical controls” value in data set [1] is on record as 4.8%.
